{"source": "paper PMC4373589", "about": "(Journal of medicinal chemistry, 2013)", "key": {"[1]": {"target": "kappa opioid receptor (KOR) (Mus musculus, UniProt P33534)", "sequence (P33534 whole entry)": "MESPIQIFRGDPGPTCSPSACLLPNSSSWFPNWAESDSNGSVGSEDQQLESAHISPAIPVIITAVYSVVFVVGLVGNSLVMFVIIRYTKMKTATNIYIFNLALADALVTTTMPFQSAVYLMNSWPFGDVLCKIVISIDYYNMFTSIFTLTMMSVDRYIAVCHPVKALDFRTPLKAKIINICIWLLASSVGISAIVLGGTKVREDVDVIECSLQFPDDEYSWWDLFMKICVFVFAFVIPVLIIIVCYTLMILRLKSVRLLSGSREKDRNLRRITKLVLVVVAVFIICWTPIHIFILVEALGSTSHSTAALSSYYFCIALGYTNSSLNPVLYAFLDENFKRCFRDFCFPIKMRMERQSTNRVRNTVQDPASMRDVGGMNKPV", "experiment": "biochemical", "assay_type": "binding, mice"}, "mu opioid receptor (MOR)": {"target": "mu opioid receptor (MOR) (Mus musculus, UniProt P42866)", "sequence (P42866 whole entry)": "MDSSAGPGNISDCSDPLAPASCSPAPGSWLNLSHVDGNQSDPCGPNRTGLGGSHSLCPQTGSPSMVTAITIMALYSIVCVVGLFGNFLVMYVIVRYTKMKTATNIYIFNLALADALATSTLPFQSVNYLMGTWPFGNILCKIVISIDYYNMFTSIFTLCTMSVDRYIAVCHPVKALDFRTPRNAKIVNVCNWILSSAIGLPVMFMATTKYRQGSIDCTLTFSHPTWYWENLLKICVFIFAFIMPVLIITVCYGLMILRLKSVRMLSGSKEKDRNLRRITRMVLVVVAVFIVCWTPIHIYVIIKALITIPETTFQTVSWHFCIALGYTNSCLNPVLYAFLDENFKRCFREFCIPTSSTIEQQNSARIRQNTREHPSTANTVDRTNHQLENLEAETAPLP", "experiment": "MOR competitive radioligand binding", "parameters": "species or system mice"}, "[2]": {"target": "delta opioid receptor (DOR) (Mus musculus, UniProt P32300)", "sequence (P32300 whole entry)": "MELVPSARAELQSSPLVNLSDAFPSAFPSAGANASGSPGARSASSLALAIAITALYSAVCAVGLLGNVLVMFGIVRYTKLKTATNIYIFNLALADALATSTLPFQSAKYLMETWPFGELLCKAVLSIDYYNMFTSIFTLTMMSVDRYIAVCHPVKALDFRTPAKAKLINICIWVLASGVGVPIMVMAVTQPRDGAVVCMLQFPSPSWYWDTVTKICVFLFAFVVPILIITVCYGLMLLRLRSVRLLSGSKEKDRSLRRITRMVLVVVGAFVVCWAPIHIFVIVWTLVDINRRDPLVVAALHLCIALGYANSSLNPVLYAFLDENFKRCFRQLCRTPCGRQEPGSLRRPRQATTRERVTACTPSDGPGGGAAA", "experiment": "DOR competitive radioligand binding", "parameters": "species or system mice"}}, "data": [{"molecule": "O=C(N[C@@]12CCC(=O)[C@@H]3Oc4c(O)ccc5c4[C@@]31CCN(CC1CC1)[C@@H]2C5)c1cnc2ccccc2c1", "note": "[Compound 16, 17-cyclopropylmethyl-4,5α-epoxy-3-hydroxy-14β-N-[(3’-quinolyl)carboxamido]morphinan-6-one]", "values": [{"measurement": "Ki", "setting": "[1]", "result": "0.00013 ± 2e-05", "unit": "µM"}, {"measurement": "Ki", "setting": "mu opioid receptor (MOR)", "result": "0.00113 ± 0.00025", "unit": "µM"}, {"measurement": "Ki", "setting": "[2]", "result": "0.00148 ± 5e-05", "unit": "µM"}]}, {"molecule": "O=C(O[C@@]12CCC(=O)[C@@H]3Oc4c(O)ccc5c4[C@@]31CCN(CC1CC1)[C@@H]2C5)c1ccncc1", "note": "[Compound 4, 17-cyclopropylmethyl-4,5α-epoxy-3-hydroxy-14β-O-(pyridyl-4’-carboxy)morphinan-6-one]", "values": [{"measurement": "Ki", "setting": "[1]", "result": "0.0492 ± 0.0204", "unit": "µM"}, {"measurement": "Ki", "setting": "mu opioid receptor (MOR)", "result": "0.00558 ± 0.00134", "unit": "µM"}, {"measurement": "Ki", "setting": "[2]", "result": "0.405 ± 0.235", "unit": "µM"}]}, {"molecule": "O=C(O[C@@]12CCC(=O)[C@@H]3Oc4c(O)ccc5c4[C@@]31CCN(CC1CC1)[C@@H]2C5)c1ccc2ccccc2n1", "note": "[Compound 7, 17-cyclopropylmethyl-4,5α-epoxy-3-hydroxy-14β-O-(quinolyl-2’-carboxy)morphinan-6-one]", "values": [{"measurement": "Ki", "setting": "[1]", "result": "0.0672 ± 0.0367", "unit": "µM"}, {"measurement": "Ki", "setting": "mu opioid receptor (MOR)", "result": "0.00144 ± 0.00032", "unit": "µM"}, {"measurement": "Ki", "setting": "[2]", "result": "0.0228 ± 0.0195", "unit": "µM"}]}, {"molecule": "O=C(N[C@@]12CCC(=O)[C@@H]3Oc4c(O)ccc5c4[C@@]31CCN(CC1CC1)[C@@H]2C5)c1ccncc1", "note": "[Compound 12, 17-cyclopropylmethyl-4,5α-epoxy-3-hydroxy-14β-N-[(4’-pyridyl)carboxamido]morphinan-6-one]", "values": [{"measurement": "Ki", "setting": "[1]", "result": "0.00033 ± 1e-05", "unit": "µM"}, {"measurement": "Ki", "setting": "mu opioid receptor (MOR)", "result": "0.00082 ± 0.00033", "unit": "µM"}, {"measurement": "Ki", "setting": "[2]", "result": "0.0109 ± 0.0013", "unit": "µM"}]}, {"molecule": "O=C(O[C@@]12CCC(=O)[C@@H]3Oc4c(O)ccc5c4[C@@]31CCN(CC1CC1)[C@@H]2C5)c1cc2ccccc2cn1", "note": "[Compound 6, 17-cyclopropylmethyl-4,5α-epoxy-3-hydroxy-14β-O-(isoquinolyl-3’-carboxy)morphinan-6-one]", "values": [{"measurement": "Ki", "setting": "[1]", "result": "> 10", "unit": "µM"}, {"measurement": "Ki", "setting": "mu opioid receptor (MOR)", "result": "0.0684 ± 0.006", "unit": "µM"}, {"measurement": "Selectivity to the MOR over the KOR and the DOR", "setting": "mu opioid receptor (MOR)", "result": "above 30 fold"}, {"measurement": "Selectivity δ/μ", "setting": "mu opioid receptor (MOR); Table 1, Ki ratio", "result": ">146"}, {"measurement": "Selectivity κ/μ", "setting": "mu opioid receptor (MOR); Table 1, Ki ratio", "result": ">146"}, {"measurement": "Ki", "setting": "[2]", "result": "> 10", "unit": "µM"}]}, {"molecule": "O=C(O[C@@]12CCC(=O)[C@@H]3Oc4c(O)ccc5c4[C@@]31CCN(CC1CC1)[C@@H]2C5)c1ccccn1", "note": "[Compound 2, 17-cyclopropylmethyl-4,5α-epoxy-3-hydroxy-14β-O-(pyridyl-2’-carboxy)morphinan-6-one]", "values": [{"measurement": "Ki", "setting": "[1]", "result": "0.0255 ± 0.0065", "unit": "µM"}, {"measurement": "Ki", "setting": "mu opioid receptor (MOR)", "result": "0.00014 ± 3e-05", "unit": "µM"}, {"measurement": "Selectivity to the MOR over the KOR and the DOR", "setting": "mu opioid receptor (MOR)", "result": "above 30 fold"}, {"measurement": "Ki", "setting": "[2]", "result": "0.117 ± 0.018", "unit": "µM"}]}, {"molecule": "O=C(O[C@@]12CCC(=O)[C@@H]3Oc4c(O)ccc5c4[C@@]31CCN(CC1CC1)[C@@H]2C5)c1ccc2ccccc2c1", "note": "[Compound 9, 17-cyclopropylmethyl-4,5α-epoxy-3-hydroxy-14β-O-(2-naphthoyloxy)morphinan-6-one]", "values": [{"measurement": "Ki", "setting": "[1]", "result": "0.0466 ± 0.0135", "unit": "µM"}, {"measurement": "Ki", "setting": "mu opioid receptor (MOR)", "result": "0.225 ± 0.0466", "unit": "µM"}, {"measurement": "Ki", "setting": "[2]", "result": "0.907 ± 0.193", "unit": "µM"}]}, {"molecule": "O=C(O[C@@]12CCC(=O)[C@@H]3Oc4c(O)ccc5c4[C@@]31CCN(CC1CC1)[C@@H]2C5)c1cccnc1", "note": "[Compound 3, 17-cyclopropylmethyl-4,5α-epoxy-3-hydroxy-14β-O-(pyridyl-3’- carboxy)morphinan-6-one]", "values": [{"measurement": "Ki", "setting": "[1]", "result": "0.0478 ± 0.0085", "unit": "µM"}, {"measurement": "Ki", "setting": "mu opioid receptor (MOR)", "result": "0.00159 ± 0.00061", "unit": "µM"}, {"measurement": "Selectivity to the MOR over the KOR and the DOR", "setting": "mu opioid receptor (MOR)", "result": "above 30 fold"}, {"measurement": "Ki", "setting": "[2]", "result": "0.17 ± 0.0126", "unit": "µM"}]}, {"molecule": "O=C(O[C@@]12CCC(=O)[C@@H]3Oc4c(O)ccc5c4[C@@]31CCN(CC1CC1)[C@@H]2C5)c1ccccc1", "note": "[Compound 5, 17-cyclopropylmethyl-4,5α-epoxy-3-hydroxy-14β-O-(benzoyloxy)morphinan-6-one]", "values": [{"measurement": "Ki", "setting": "[1]", "result": "0.586 ± 0.0324", "unit": "µM"}, {"measurement": "Selectivity δ/κ", "setting": "[1]; Table 1, Ki ratio", "result": ">17"}, {"measurement": "Ki", "setting": "mu opioid receptor (MOR)", "result": "0.123 ± 0.0382", "unit": "µM"}, {"measurement": "Selectivity δ/μ", "setting": "mu opioid receptor (MOR); Table 1, Ki ratio", "result": ">81"}, {"measurement": "Ki", "setting": "[2]", "result": "> 10", "unit": "µM"}]}, {"molecule": "O=C(N[C@@]12CCC(=O)[C@@H]3Oc4c(O)ccc5c4[C@@]31CCN(CC1CC1)[C@@H]2C5)c1ccc2ccccc2n1", "note": "[Compound 15, 17-cyclopropylmethyl-4,5α-epoxy-3-hydroxy-14β-N-[(2’-quinolyl)carboxamido]morphinan-6-one]", "values": [{"measurement": "Ki", "setting": "[1]", "result": "0.00026 ± 1e-05", "unit": "µM"}, {"measurement": "Ki", "setting": "mu opioid receptor (MOR)", "result": "0.00909 ± 0.00494", "unit": "µM"}, {"measurement": "Ki", "setting": "[2]", "result": "0.0151 ± 0.0006", "unit": "µM"}]}]}
